In US20210284691A1, “CBX8 CHROMDOMAIN INHIBITORS AND THE USES THEREOF” (Purdue Research Foundation, priority 2019, published 2021):
Square brackets hold non-standard residues; d marks the D form. Peptide text beside a SMILES is read from it. * marks the point of attachment. Tyr(3-Cl) = N[C@@H](Cc1ccc(O)c(Cl)c1)C(=O)O; Benzoyl(3,5-Cl2) = O=C(c1cc(Cl)cc(Cl)c1)*; Lys(Et2) = CCN(CC)CCCC[C@H](N)C(=O)O; Gly(cPent) = N[C@H](C(=O)O)C1CCCC1; NH(propargyl) = C#CCN*

Key:
LNCaP_NED cells = experiment: LNCaP_NED cell proliferation, viability and morphology; type: cell-based
Excerpt: FIG. 12A). Neuroendocrine differentiation (NED) of prostate cancer induced by androgen deprivation. Representative pictures of LNCaP cells treated with normal media or charcoal-stripped serum (CSS) media for 6 days to induce neuroendocrine differentiation (LNCaP_NED). FIG. 12B). Transcriptional fold changes of KLK3/TMPRSS2/ENO2/CHGA were quantified normalized to control gene YWHAZ upon CSS media treatment for 6 or 9 days. FIG. 12C). Western blotting of CBX paralogs in LNCaP and LNCaP_NED cells generated from 14-day CSS treatment. FIG. 12D). Cell proliferation of LNCaP_NED following 5 days incubation with 2 or 10 μM SW2_152F. DMSO was used as negative control. FIG. 12E). LNCaP_NED cells were treated with 10 μM SW2_152F for 24 h-96 h. Cell morphology pictures were captured starting from 24 h. Average cell size were plotted at 24 h or 48 h for both DMSO group and compound treated group. FIG. 12F). LNCaP_NED cells were treated with 10 μM or 50 μM SW2_152F for 48 hours. Transcriptional fold change of genes (KLK3/TMPRSS2/AR/CBX2) were normalized to YWHAZ in LNCaP_NED cells with SW2_152F treatment or DMSO. FIG. 12G). LNCaP cells were treated with DMSO. LNCaP_NED cells were treated with DMSO, 10 μM GSK343 or 10 μM SW2_152F for 48 hours. Whole cell lysates were extracted for western blotting. FIG. 12H). LNCaP_NED cells were treated with DMSO or 10 μM SW2_152F for 4 hours before harvest. Binding of H3K27me3 and CBX2 at specific genomic sites (KLK3/TMPRSS2, e: enhancer, p: promoter) were evaluated using chromatin immunoprecipitation-qPCR. For all experiments in the figure, error bars represent SEM n=3 biological replicates, p-values were calculated using two-tailed Student's t-test, *=p<0.05, **=p<0.01, ***=p<0.001, ****=p<0.0001.
Cellular Activity of CBX2 Inhibitor in Neuroendocrine Differentiation of Prostate Cancer—Generation of a Prostate Cancer Neuroendocrine Differentiation (NED) System. To generate an in vitro model for NED, we cultured the androgen-sensitive prostate cancer cell line LNCaP in charcoal-stripped serum (CSS), which lacks androgens as well as other steroids. Upon treatment with CSS media, LNCaP cells adopted morphological characteristics of neuroendocrine-like cells (LNCaP_NED), which include dominant nucleus, limited cytoplasm, dendrites (FIG. 12A) and a decreased proliferation rate. To monitor transcriptional changes during androgen deprivation, we quantified the changes in expression of two NED markers (ENO2 and CHGA) and two AR target genes (KLK3 and TMPRSS2) by RT-qPCR during 15 days of androgen deprivation. […] To verify that LNCaP_NED cells become resistant to AR antagonists, we tested the effects of the AR antagonist enzalutamide (ENZA) on cell proliferation.

[1] = molecular target: T1, CBX8 bulk chromatin binding (Homo sapiens, UniProt Q9HC52); experiment: Sequential salt extraction (SSE) in HEK293T cells; type: cell-based; settings: 10 μM
T1 construct: endogenous in cells; host or cells: HEK293T (A19)
T1 sequence (Q9HC52 whole entry): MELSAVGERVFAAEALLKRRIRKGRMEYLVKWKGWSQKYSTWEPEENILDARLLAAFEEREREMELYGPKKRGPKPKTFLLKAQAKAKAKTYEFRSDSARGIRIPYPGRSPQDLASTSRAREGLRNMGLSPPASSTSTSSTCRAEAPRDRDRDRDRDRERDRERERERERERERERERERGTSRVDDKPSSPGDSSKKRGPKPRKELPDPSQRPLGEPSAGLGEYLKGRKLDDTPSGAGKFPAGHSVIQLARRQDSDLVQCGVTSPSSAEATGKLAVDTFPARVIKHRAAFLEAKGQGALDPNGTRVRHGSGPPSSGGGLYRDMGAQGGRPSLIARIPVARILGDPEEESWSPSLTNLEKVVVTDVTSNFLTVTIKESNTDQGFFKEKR

CBX8 binding to chromatin, SSE [1]: only a modest change
SMILES: C#CCNC(=O)[C@H](CO)NC(=O)[C@H](CCCCN(CC)CC)NC(=O)[C@@H](NC(=O)[C@@H](NC(=O)[C@H](Cc1ccc(O)c(Cl)c1)NC(=O)c1cc(Cl)cc(Cl)c1)C1CCCC1)[C@@H](C)CC [SW2_152F] ({Benzoyl(3,5-Cl2)}-[Tyr(3-Cl)][Gly(cPent)]I[Lys(Et2)]S-{NH(propargyl)})
cell size and dendrites of LNCaP_NED cells (LNCaP_NED cells; 10 μM, 24 h or 48 h): significantly decreased average cell size and reduced dendrites | LNCaP_NED cell proliferation (LNCaP_NED cells; 2 or 10 μM, 5 days): significantly inhibited LNCaP_NED cell proliferation | LNCaP_NED cell viability, combination with ENZA (LNCaP_NED cells; both compounds, 4 days, compared to either alone): significantly decreased
